Results as given in patent publication US11285127B2, “Compositions and methods for lowering triglycerides without raising LDL-C levels in a subject on concomitant statin therapy” (Amarin Pharmaceuticals Ireland Limited, priority 2013, dated 2022).

Tested on: patients with fasting triglyceride levels >200 mg/dl and <500 mg/dl despite statin therapy
Assay: 12-week study: apolipoproteins (Apo A-1, Apo B, ratio) and lipoprotein(a)
Assay type: in vivo, human
Conditions: for Apo A1 Week 12 EP Median (IQR) / Apo B Week 12 EP Median (IQR) / Apo B/Apo A1 ratio Week 12 EP Median (IQR) / Lp (a) Week 12 EP Median (IQR) / Apo A1 Percent change from Baseline Median (IQR) / Apo B Percent change from Baseline Median (IQR) / Apo B/Apo A1 ratio Percent change from Baseline Median (IQR) / Lp (a) Percent change from Baseline Median (IQR) / Apo A1 Difference from placebo Estimated median / Apo B Difference from placebo Estimated median / Apo B/Apo A1 ratio Difference from placebo Estimated median / Lp (a) Difference from placebo Estimated median: MITT; for Apo A1 Percent change from Baseline Median (IQR) / Apo B Percent change from Baseline Median (IQR) / Apo B/Apo A1 ratio Percent change from Baseline Median (IQR) / Lp (a) Percent change from Baseline Median (IQR): Week 12 endpoint; for Apo A1 Difference from placebo Estimated median / Apo B Difference from placebo Estimated median / Apo B/Apo A1 ratio Difference from placebo Estimated median / Lp (a) Difference from placebo Estimated median: percent change from baseline to Week 12 endpoint
Excerpt: Parameters (a)-(z) can be measured in accordance with any clinically acceptable methodology. For example, triglycerides, total cholesterol, HDL-C and fasting blood sugar can be sample from serum and analyzed using standard photometry techniques. VLDL-TG, LDL-C and VLDL-C can be calculated or determined using serum lipoprotein fractionation by preparative ultracentrifugation and subsequent quantitative analysis by refractometry or by analytic ultracentrifugal methodology. Apo A1, Apo B and hsCRP can be determined from serum using standard nephelometry techniques. Lipoprotein (a) can be determined from serum using standard turbidimetric immunoassay techniques. LDL particle number and particle size can be determined using nuclear magnetic resonance (NMR) spectrometry. Remnants lipoproteins and LDL-phospholipase A2 can be determined from EDTA plasma or serum and serum, respectively, using enzymatic immunoseparation techniques. Oxidized LDL, intercellular adhesion molecule-1 and interleukin-2 levels can be determined from serum using standard enzyme immunoassay techniques. These techniques are described in detail in standard textbooks, for example Tietz Fundamentals of Clinical Chemistry, 6th Ed. (Burtis, Ashwood and Borter Eds.), WB Saunders Company.
A multi-center, placebo-controlled, randomized, double-blind, 12-week study was performed to evaluate the efficacy and safety of >96% E-EPA in patients with fasting triglyceride levels >200 mg/dl and <500 mg/dl despite statin therapy (the mean of two qualifying entry values needed to be >185 mg/dl and at least one of the values needed to be >200 mg/dl). The primary objective of the study was to determine the efficacy of >96% E-EPA 2 g daily and 4 g daily, compared to placebo, in lowering fasting TG levels in patients with high risk for cardiovascular disease and with fasting TG levels 200 mg/dl and <500 mg/dl, despite treatment to LDL-C goal on statin therapy.
The primary efficacy variable for the double-blind treatment period was percent change in TG from baseline to Week 12 endpoint. The secondary efficacy variables for the double-blind treatment period included the following: • Percent changes in total cholesterol (TC), high-density lipoprotein cholesterol (HDL-C), LDL-C, calculated non-HDL-C, and very low-density lipoprotein cholesterol (VLDL-C) from baseline to Week 12 endpoint; • Percent change in very low-density lipoprotein TG from baseline to Week 12; • Percent changes in apolipoprotein A-I (Apo A-1), apolipoprotein B (Apo B), and Apo A-1/Apo B ratio from baseline to Week 12; • Percent changes in lipoprotein(a) from baseline to Week 12; • Percent changes in LDL particle number and size, measured by nuclear magnetic resonance, from baseline to Week 12; • Percent change in remnant-like particle cholesterol from baseline to Week 12; • Percent change in oxidized LDL from baseline to Week 12; • Changes in FPG and HbA1c from baseline to Week 12; • Change in insulin resistance, as assessed by the homeostasis model index insulin resistance, from baseline to Week 12; • Percent change in lipoprotein associated phospholipase A2 (Lp-PLA2) from baseline to Week 12; • Change in intracellular adhesion molecule-1 from baseline to Week 12; • Change in interleukin-2 from baseline to Week 12; • Change in plasminogen activator inhibitor-1 from baseline to Week 12. Note: this parameter will only be collected at sites with proper storage conditions; • Change in hsCRP from baseline to Week 12; and • Change in plasma concentration and red blood cell membrane content of fatty acid from baseline to Week 12 including EPA, docosapentaenoic acid (DPA), docosahexaenoic acid (DHA), arachidonic acid (AA), dihomo-γ-linolenic acid (DGLA), the ratio of EPA/AA, ratio of oleic acid/stearic acid (OA/SA), and the ratio of total omega-3 acids over total omega-6 acids. […]

[1] = IPE 4 g/day (n = 216), 12 weeks, patients with lipoprotein data

CC/C=C\C/C=C\C/C=C\C/C=C\C/C=C\CCCC(=O)OCC [AMR101, ethyl eicosapentaenoate]
Apo A1 Week 12 EP Median (IQR) (AMR101 2 g/d + statin): 141.0 (26.0) mg/dL | Apo B Week 12 EP Median (IQR) (AMR101 2 g/d + statin): 95.0 (24.0) mg/dL | Apo B/Apo A1 ratio Week 12 EP Median (IQR) (AMR101 2 g/d + statin): 0.7 (0.2) | Lp (a) Week 12 EP Median (IQR) (AMR101 2 g/d + statin): 12.0 (33.0) mg/dL | Apo A1 Percent change from Baseline Median (IQR) (AMR101 2 g/d + statin): 2.0 (13.0) % | Apo B Percent change from Baseline Median (IQR) (AMR101 2 g/d + statin): 1.6 (20.7) % | Apo B/Apo A1 ratio Percent change from Baseline Median (IQR) (AMR101 2 g/d + statin): 0.1 (18.3) % | Lp (a) Percent change from Baseline Median (IQR) (AMR101 2 g/d + statin): 0.0 (24.9) % | Apo A1 Difference from placebo Estimated median (AMR101 2 g/d + statin): −1.7% | Apo B Difference from placebo Estimated median (AMR101 2 g/d + statin): −3.8% | Apo B/Apo A1 ratio Difference from placebo Estimated median (AMR101 2 g/d + statin): −2.0% | Lp (a) Difference from placebo Estimated median (AMR101 2 g/d + statin): 0.0% | Apo A1 Week 12 EP Median (IQR) (AMR101 4 g/d + statin): 137.0 (29.0) mg/dL | Apo B Week 12 EP Median (IQR) (AMR101 4 g/d + statin): 90.0 (25.0) mg/dL | Apo B/Apo A1 ratio Week 12 EP Median (IQR) (AMR101 4 g/d + statin): 0.7 (0.2) | Lp (a) Week 12 EP Median (IQR) (AMR101 4 g/d + statin): 9.0 (31.0) mg/dL | Apo A1 Percent change from Baseline Median (IQR) (AMR101 4 g/d + statin): −2.9 (12.6) % | Apo B Percent change from Baseline Median (IQR) (AMR101 4 g/d + statin): −2.2 (16.4) % | Apo B/Apo A1 ratio Percent change from Baseline Median (IQR) (AMR101 4 g/d + statin): −0.7 (20.3) % | Lp (a) Percent change from Baseline Median (IQR) (AMR101 4 g/d + statin): 0.0 (10.0) % | Apo A1 Difference from placebo Estimated median (AMR101 4 g/d + statin): −6.9% | Apo B Difference from placebo Estimated median (AMR101 4 g/d + statin): −9.3% | Apo B/Apo A1 ratio Difference from placebo Estimated median (AMR101 4 g/d + statin): −2.4% | Lp (a) Difference from placebo Estimated median (AMR101 4 g/d + statin): 0.0% | Apo-B, Change From Baseline, % (median) [1]: −2.2% | Apo-B, End of Treatment (median) [1]: 90.0 mg/dL | Apo-B, Median Change From Baseline IPE 4 g/day vs Placebo, % (IPE 4 g/day vs placebo, 12 weeks, Hodges-Lehmann median): −8.8%
